In a melting point compilation (Tetko et al.; mined from patent text by program, amines drawn as free bases though some values may be those of a salt):

SMILES | melting point [°C]
CCOC(=O)c1cc(C(O)CBr)c(=O)[nH]c1C(=O)OCC (stereo unspecified) | 134 to 138
CCCCCCCCCCNC(=O)CCCO | 74 to 75
COc1cc(COc2nn(-c3ccccc3)cc2CC(=O)N2CCOCC2)ccc1OCc1nc(-c2ccco2)oc1C | 132 to 133
COc1ccc(-n2cnc3ccc(-c4nnc(SCc5cccc(C(F)(F)F)c5)o4)cc32)cc1 | 174 to 175
Cc1ccc(C(O)CCN(C)C)s1 (stereo unspecified) | 66.5 to 68
Cn1c(N)c2ncn(C3OC(CO)C(O)C3O)c2nc1=O (stereo unspecified) | 262 to 263
CCCCCCCCc1ncc([N+](=O)[O-])n1C | 141
Cc1c(F)c(F)cc(C(=O)O)c1F | 101 to 102
COc1ccc(CCN(C)CCCOc2ccc(NC(=O)c3cccc4c(=O)c5ccccc5[nH]c34)cc2)cc1 | 160
CC(C)Oc1ccc(/C=C/C(=O)O)c(Oc2ncc(C(F)(F)F)cc2Cl)c1 | 138 to 140
COC(=S)N=C(N)SC | 75 to 76
CN(CCOc1ccc2ccc(N)nc2n1)C(=O)OC(C)(C)C | 170
COc1cc(NC(=O)CC23CC4CC(CC(C4)C2)C3)cc(OC)c1 | 144 to 146
Cn1ncnc1COc1nn2c(-c3ccccc3F)nncc2c1Br | 215 to 219
CNc1nc(-c2ccc(C(F)(F)F)cc2)c2cc(C)sc2n1 | 233
OC1(c2ccc3c(c2)OCO3)C(c2ccc(Cl)cc2)SC2=NCCCCN21 (stereo unspecified) | 105 to 107
COc1ccc(C2(C#Cc3ccc(N4CN=C(C)O4)s3)CCC(=O)CC2)cc1OC1CCCC1 | 94 to 95
CS(=O)(=O)O[C@@H](COC(c1ccccc1)(c1ccccc1)c1ccccc1)C[C@@H]1c2ccccc2Oc2ccc(F)cc2[C@H]1N=[N+]=[N-] | 55 to 56
COc1ccc(Br)c(O)c1O | 122 to 124
Cc1cccc(S(=O)(=O)NC(=O)NCCCCCCN)c1 | 187
COc1c(C)c(C)c2c(c1C)CC(CC(=O)O)O2 (racemic) | 74 to 76
C=CCOc1ccccc1C=NNC(=N)N | 124
O=C1CCn2nc(-c3ccc(F)cc3)c(-c3ccncc3)c2N1 | > 250
O=C1NCC2(CCN(CC(O)COc3cccc4ccccc34)CC2)O1 (stereo unspecified) | 137 to 140
CCOC(=O)C=Cc1ccc(OCc2coc(-c3ccccc3)n2)c(OC)c1 | 128 to 129
O=C(O)c1ccc2c([N+](=O)[O-])cc3c(c2c1)C(CCl)CN3 (stereo unspecified) | 205 to 208

SMILES | melting point [°C]
CCOc1nn(-c2ccc(C(F)(F)F)cn2)cc1CCO | 75 to 76
CC(C)CN1C(=O)C2CC2(c2ccc(N)cc2)C1=O (stereo unspecified) | 100 to 101
C=CCSc1nc(=O)n(-c2ccsc2)cc1F | 125 to 127
Cc1sc2cc(C3=NCCS3)[nH]c2c1N(C)S(=O)(=O)c1cccs1 | 140
CCCCCCCCCCCCn1nnc(CCC(=O)Nc2c(C(C)C)cccc2C(C)C)n1 | 41 to 43
O=C(Nc1cccc([N+](=O)[O-])c1)C1=C(Nc2ccccc2)COC1=O | 194 to 195
CCOC(=O)C1CC1c1cc(=O)c2cc(-c3ccccc3)ccc2o1 (stereo unspecified) | 134 to 141
CCC(C)(CCCCCCC(C)(CC)C(=O)O)C(=O)O (stereo unspecified) | 117 to 118
CC(=O)c1cc(-c2ccccc2)c(=O)n2c1-c1ccsc1CC2 | 181 to 182
COc1cc2[nH]c(N(C)Cc3cccc(Oc4ncccn4)c3)nc(=O)c2c(C)c1OC | 224 to 228
CC12CCC(C(=O)O)=CC1=CCC1C2CCC2(C)C(C(=O)NC3C4CC5CC(C4)CC3C5)CCC12 (stereo unspecified) | 214 to 216
CC1(C)OC(=O)C(=CC2CC2)C(=O)O1 | 91 to 92
Cc1ccc(-c2c(C(=O)NCc3cc(C(F)(F)F)cc(C(F)(F)F)c3)n(CCCCO)c(=O)c3ncccc23)cc1 | 187 to 188
CC(C)(C)C(=O)Oc1ccc(C(=O)c2ccc(Cl)cc2)cc1 | 113 to 114
CCCCC=Cc1cc2ccccc2[nH]1 | 70 to 72
C[C@@H]1Cc2cc3c(cc2C(c2ccc(N)cc2)=NN1c1ccccc1)OCO3 | 118 to 119
CCn1cc(C(=O)O)c(=O)c2cc(C=NOCC(=O)O)sc21 | 249 to 250
CCCCCCC(=O)c1c(O)oc(=O)c(C(=O)CCCCCC)c1O | 88 to 90
O=C(O)C1Oc2ccc(Cl)cc2C(c2ccccc2)(c2ccccc2)O1 (stereo unspecified) | 226
Cc1ccc(C(=O)Nc2nc(-c3ccccc3)c(-c3nc4ccccc4c(=O)n3-c3ccccc3C)s2)cc1 | > 275
CCCCc1ncc(/C=C(\Cc2cccs2)C(=O)O)n1Cc1ccc(C(N)=O)cc1 | 210 to 212
CCCCN(CCCC)c1ccc(C=CC2=C(C#N)C(=C(C#N)C#N)OC2(C)C)c(OC)c1 | 222 to 226
CCNc1cc(NS(=O)(=O)c2ccc(N)cc2)nc(N)n1 | 272 to 274
Nc1ccc(S(=O)(=O)Oc2ccccc2)cc1[N+](=O)[O-] | 104
CC(C)(C)c1cc(Oc2ccc(Br)cc2)cc(C(C)(C)C)c1 | 98 to 100
